What all share (assay type): functional, Homo sapiens
The subject of test [1] is DU-145. As to the kind of experiment: Tested for in vitro activity against DU 145 cells at PTX dilution factor 1:100, expressed as percentage of cellular survival as a function of drug dilution.
The test system of test [2] is DU-145. Nature of the test: Tested for in vitro activity against DU 145 cells at PTX dilution factor 1:500, expressed as percentage of cellular survival as a function of drug dilution.
Test [3] concerns DU-145. Nature of the test: Tested for in vitro activity against DU 145 cells at PTX dilution factor 1:50, expressed as percentage of cellular survival as a function of drug dilution.
In test [4] the test system is DU-145. Nature of the test: Tested for in vitro activity against DU 145 cells at PTX dilution factor 1:1000, expressed as percentage of cellular survival as a function of drug dilution.

`COCC1O[C@H]2OC3C(COC)O[C@@H](OC4C(COC)O[C@@H](OC5C(COC)O[C@@H](OC6C(COC)O[C@@H](OC7C(COC)O[C@@H](OC8C(COC)O[C@@H](OC1[C@@H](O)[C@@H]2OC)[C@@H](OC)[C@H]8O)[C@@H](OC)[C@H]7O)[C@@H](O)[C@H]6OC)[C@@H](OC)[C@H]5O)[C@@H](OC)[C@H]4O)[C@@H](OC)[C@H]3O` (stereo partly drawn): the Survival in the test with DU-145 [1] amounted to 90.6%; in the test on DU-145 [2], 90.2%; with DU-145 [3], 88.9%; in the test with DU-145 [4] it was 91.5%.

Take `CC(=O)O[C@H]1C(=O)[C@@]2(C)C([C@H](OC(=O)c3ccccc3)[C@]3(O)C[C@H](OC(=O)[C@H](O)[C@@H](NC(=O)c4ccccc4)c4ccccc4)C(C)=C1C3(C)C)[C@]1(OC(C)=O)CO[C@@H]1C[C@@H]2O.COCC1O[C@H]2OC3C(COC)O[C@@H](OC4C(COC)O[C@@H](OC5C(COC)O[C@@H](OC6C(COC)O[C@@H](OC7C(COC)O[C@@H](OC8C(COC)O[C@@H](OC1[C@@H](OC)[C@@H]2OC)[C@@H](OC)[C@H]8OC)[C@@H](OC)[C@H]7OC)[C@@H](OC)[C@H]6OC)[C@@H](OC)[C@H]5OC)[C@@H](OC)[C@H]4OC)[C@@H](OC)[C@H]3OC` (stereo partly drawn): the Survival in the test on DU-145 [1] is given as 61.3%; in the test with DU-145 [2], 68.7%; with DU-145 [3] it was 43.2%; in the test on DU-145 [4] it was 69.3%.

`COCC1O[C@H]2OC3C(COC)O[C@@H](OC4C(COC)O[C@@H](OC5C(COC)O[C@@H](OC6C(COC)O[C@@H](OC7C(COC)O[C@@H](OC8C(COC)O[C@@H](OC1[C@@H](OC)[C@@H]2OC)[C@@H](OC)[C@H]8OC)[C@@H](OC)[C@H]7OC)[C@@H](OC)[C@H]6OC)[C@@H](OC)[C@H]5OC)[C@@H](OC)[C@H]4OC)[C@@H](OC)[C@H]3OC` (stereo partly drawn): the Survival in the test on DU-145 [1] worked out at 85.5%; with DU-145 [2], 87%; with DU-145 [3], 79.7%; in the test with DU-145 [4], 90.1%.

For the compound `CC(=O)O[C@H]1C(=O)[C@@]2(C)C([C@H](OC(=O)c3ccccc3)[C@]3(O)C[C@H](OC(=O)[C@H](O)[C@@H](NC(=O)c4ccccc4)c4ccccc4)C(C)=C1C3(C)C)[C@]1(OC(C)=O)CO[C@@H]1C[C@@H]2O.COCC1O[C@H]2OC3C(COC)O[C@@H](OC4C(COC)O[C@@H](OC5C(COC)O[C@@H](OC6C(COC)O[C@@H](OC7C(COC)O[C@@H](OC8C(COC)O[C@@H](OC1[C@@H](O)[C@@H]2OC)[C@@H](OC)[C@H]8O)[C@@H](OC)[C@H]7O)[C@@H](O)[C@H]6OC)[C@@H](OC)[C@H]5O)[C@@H](OC)[C@H]4O)[C@@H](OC)[C@H]3O` (stereo partly drawn), the Survival is 46.3% in the test on DU-145 [1], 51.1% with DU-145 [2], 35.2% with DU-145 [3] and 61.3% in the test with DU-145 [4].

On to `CC(=O)O[C@H]1C(=O)[C@@]2(C)C([C@H](OC(=O)c3ccccc3)[C@]3(O)C[C@H](OC(=O)[C@H](O)[C@@H](NC(=O)c4ccccc4)c4ccccc4)C(C)=C1C3(C)C)[C@]1(OC(C)=O)CO[C@@H]1C[C@@H]2O.OCC1O[C@H]2OC3C(CO)O[C@@H](OC4C(CO)O[C@@H](OC5C(CO)O[C@@H](OC6C(CO)O[C@@H](OC7C(CO)O[C@@H](OC8C(CO)O[C@@H](OC1[C@@H](O)[C@@H]2O)[C@@H](O)[C@H]8O)[C@@H](O)[C@H]7O)[C@@H](O)[C@H]6O)[C@@H](O)[C@H]5O)[C@@H](O)[C@H]4O)[C@@H](O)[C@H]3O` (stereo partly drawn), for which the Survival came to 22.3% in the test with DU-145 [1], 23.1% with DU-145 [2], 12.2% in the test on DU-145 [3] and 24.2% in the test with DU-145 [4].

As for `OC[C@H]1O[C@@H]2O[C@H]3[C@H](O)[C@@H](O)[C@@H](O[C@H]4[C@H](O)[C@@H](O)[C@@H](O[C@H]5[C@H](O)[C@@H](O)[C@@H](O[C@H]6[C@H](O)[C@@H](O)[C@@H](O[C@H]7[C@H](O)[C@@H](O)[C@@H](O[C@H]8[C@H](O)[C@@H](O)[C@@H](O[C@H]1[C@H](O)[C@H]2O)O[C@@H]8CO)O[C@@H]7CO)O[C@@H]6CO)O[C@@H]5CO)O[C@@H]4CO)O[C@@H]3CO` [BETADEX], the Survival in the test with DU-145 [1] is recorded as 96.6%; with DU-145 [2], 96.4%; in the test with DU-145 [3], 96.4%; with DU-145 [4], 96.8%.

In the case of `CC(=O)O[C@H]1C(=O)[C@@]2(C)[C@H]([C@H](OC(=O)c3ccccc3)[C@]3(O)C[C@H](OC(=O)[C@H](O)[C@@H](NC(=O)c4ccccc4)c4ccccc4)C(C)=C1C3(C)C)[C@]1(OC(C)=O)CO[C@@H]1C[C@@H]2O` [PACLITAXEL], the Survival in the test with DU-145 [1] turned out to be 12.1%; in the test with DU-145 [2], 43.3%; in the test with DU-145 [3], 11.6%; in the test on DU-145 [4] it was 46%.

These data come from ChEMBL document CHEMBL1135151, “Preparation, characterization, molecular modeling and in vitro activity of paclitaxel-cyclodextrin complexes” (2002).
